Data on seven compounds can be found in patent publication US4376768A, “Benzothiazine derivative” (priority 1980, dated 1983).

Like-named read-outs stand apart in the source and are kept apart here.

Data set [1] is described as follows: in vivo. Particulars: for selectivity ratio: rat, in vivo, po. As for the experimental part: (§1) Anti-inflammatory activity was tested as follows: Male rats of the Wistar strain were used in groups of 7. A test compound was suspended in a 0.2% carboxymethyl cellulose solution and orally administered in a dose of 0.5 ml/100 g of body weight. […] Three hours after injection of carrageenin, each rat was sacrificed by ether. The feet of both hind legs were amputated at the ankle joint and weighed to detect the difference in weight between both feet. Then, the ability of the test compound to suppress the carrageenin-induced edema was evaluated by comparing the foot weight difference of the test group with that of a control group (consisting of rats to which the solvent alone was administered). Specifically, the rate of suppression of the edema was calculated according to the following equation: [formula]
The incidence of gastric disorders in rats was tested as follows: Eight-weeks-old male rats of the Wistar strain were used in groups of 5 to 7. After they were fasted for 18 hours or more, a test compound was administered orally. Six hours later, each rat was sacrificed by decapitation. The stomach was removed, filled with 10 ml of physiological saline, and then fixed in 5% formalin. After about 10 minutes, the stomach was incised through the greater curvature and the presence or absence of gastric disorders (in particular, erosion) was examined by visual observation. According to Litchfield-Wilcoxon's method, the dose causing erosion to occur in 50% of the test animals, UD50, was calculated on an all-or-none basis.

The subject of another data set is mice. The experiment in a line: in vivo. Format: in vivo. As to conditions: Table 5; for LD50: observed for 7 days; for Number of deaths / total number of test animals: p.o.
The next data set can be described thus: Safety margin LD50/ED50. As to conditions: for Safety margin, LD50/ED50: Table 1. As for the experimental part:
as §1
A test compound was suspended in a 0.2% carboxymethyl cellulose solution and orally administered in a dose of 0.1 ml/10 g of body weight. […] The LD50 value was calculated on the basis of the death rates on the final day.

For data set [2] the following is noted: prior art, in words; cited from earlier work.
The test system of data set [3] is carrageenin-induced edema. Briefly: Duration of anti-inflammatory activity (carrageenin edema at varied premedication times). It is filed as in vivo, male rats of the Wistar strain. As to conditions: for Rate of suppression of edema in rats premedicated at various times: Table 3, dose = ED50. The source says: The premedication time was defined as the time interval between the administration of a test compound and the injection of carrageenin.
In general terms: Carrageenan injected into the paw causes an acute inflammation.

In data set [4] the test system is carrageenin-induced edema. The experiment in a line: Anti-inflammatory activity: suppression of carrageenin-induced edema in the rat hind foot. It is filed as in vivo, male rats of the Wistar strain.
A short description of data set [5]: in vivo. As to conditions: mouse, in vivo; Table 1; mice, oral, 7 days; read-out: Acute toxicity, LD50. It is filed as in vivo.
Data set [6] is described as follows: Incidence of gastric disorders (erosion) in rats. It is filed as in vivo, male rats of the Wistar strain. Particulars: rat, in vivo, po. The source says: (§2) Six hours later, each rat was sacrificed by decapitation.
For data set [7], the system named is gastric disorders (erosion). The experiment in a line: Incidence of gastric disorders (erosion) in rats. It is filed as in vivo, male rats of the Wistar strain. Particulars: Table 1; rats, oral.
Excerpt: as §2

Where [8] appears, read: in words, among the compounds of Table 1.

For the compound `Cc1cccc(NC(=O)C2C(=O)c3ccccc3S(=O)(=O)N2C)n1` (centres unmarked) [6-Methyl-2-pyridyl compound, N-(6-methyl-2-pyridyl)-3,4-dihydro-2-methyl-4-oxo-2H-1,2-benzothiazine-3-carboxamide 1,1-dioxide], in “in vivo [1]”, the selectivity ratio is 1.1.
By LD50 is commonly meant the dose expected to kill half of the subjects tested. As for `Cc1cc(NC(=O)C2C(=O)c3ccccc3S(=O)(=O)N2C)no1` (centres unmarked) [Isoxicam, 3,4-dihydro-2-methyl-N-(5-methyl-3-isoxazolyl)-4-oxo-2H-1,2-benzothiazine-3-carboxamide 1,1-dioxide], in the data set on mice, the LD50 is reported as 5,000 mg/kg, p.o. Further, the “Safety margin compared with indomethacin and diclofenac” value in the data set “Safety margin LD50/ED50” (in words) is “superior”. Besides, the “Anti-inflammatory activity compared with Piroxicam and Sudoxicam” value in data set [2] was “lower”. Further, the “Rate of suppression of edema in rats premedicated at various times” value (“Rate of suppression of edema” below) in [3] (premedication 48 hr.) worked out at 1.1%.
In the case of `CN1C(C(=O)Nc2ccccn2)C(=O)c2ccccc2S1(=O)=O` (centres unmarked) [Piroxicam, 3,4-dihydro-2-methyl-4-oxo-N-(2-pyridyl)-2H-1,2-benzothiazine-3-carboxamide 1,1-dioxide], the 50% lethal dose (LD50) in the data set with mice is given as 490 mg/kg, p.o. The “Safety margin compared with indomethacin and diclofenac” value in the data set “Safety margin LD50/ED50” (in words) is on record as “superior”. Further, the Anti-inflammatory activity result in [2] was “potent and long-lasting”. The figures for the “Rate of suppression of edema” value in data set [3] (premedication 6 hr.) and in data set [3] (premedication 48 hr.) were 40.0% and 1.7%, respectively.
Regarding `COc1ccc2c(c1)c(CC(=O)O)c(C)n2C(=O)c1ccc(Cl)cc1` [Indomethacin], in “Safety margin LD50/ED50”, the “Safety margin, LD50/ED50” value was 3.7. Also, the selectivity ratio in “in vivo [1]” was determined as 1.2. Also, the “Rate of suppression of edema” value in data set [3] (premedication 1 hr.) is 49.4%; in data set [3] (premedication 3 hr.), 57.6%; in [3] (premedication 6 hr.), 29.4%; in data set [3] (premedication 12 hr.), 18.8%; in [3] (premedication 24 hr.), -3.5%.
The ED50 is the midpoint of the dose-response relation. Take `CN1C(C(=O)Nc2cccc(Cl)n2)C(=O)c2ccccc2S1(=O)=O` (centres unmarked) [Compound of formula (1), N-(6-chloro-2-pyridyl)-3,4-dihydro-2-methyl-4-oxo-2H-1,2-benzothiazine-3-carboxamide 1,1-dioxide]: in data set [4] (Rattus norvegicus, po, 3 h, Table 2, 2.0 mg/kg, p.o., read-out: Rate of suppression of edema), the inhibition in vivo at 2 mg/kg was determined as 19.4%. The inhibition in vivo at 4 mg/kg in [4] (Rattus norvegicus, po, 3 h, Table 2, 4.0 mg/kg, p.o., read-out: Rate of suppression of edema) was found to be 43.6%. Further, the inhibition in vivo at 8 mg/kg in data set [4] (Rattus norvegicus, po, 3 h, Table 2, 8.0 mg/kg, p.o., read-out: Rate of suppression of edema) was found to be 50.6%. Besides, the inhibition in vivo at 16 mg/kg in data set [4] (Rattus norvegicus, po, 3 h, Table 2, 16.0 mg/kg, p.o., read-out: Rate of suppression of edema) turned out to be 71%. Also, the ED50 in data set [4] (Rattus norvegicus, po, read-out: Dose producing 50% suppression, ED50, Table 2, carrageenin 1 h after compound, read 3 h later) is 6.5 mg/kg; in data set [4] (Table 1, rat carrageenin edema, oral, read-out: Anti-inflammatory activity, ED50), 6.5 mg/kg. Besides, the Anti-inflammatory activity entry in data set [4] (in words) is “potent and long-lasting”. Moreover, the “Number of deaths / total number of test animals” value with mice (1,000 mg/kg) was 0/5; with mice (3,000 mg/kg), 2/5; in the data set with mice (5,000 mg/kg) it was 3/5. For the same compound, the LD50 at 168 h in the data set “in vivo [5]” amounted to 4000 mg/kg. The selectivity ratio turned out to be 615 in the data set “Safety margin LD50/ED50” (in vivo, po) and 30.8 in the data set “in vivo [1]”. Moreover, in “Safety margin LD50/ED50” (in words), the Degree of safety entry was “very high degree of safety”. In addition, the “Safety margin compared with indomethacin and diclofenac” value in the data set “Safety margin LD50/ED50” (in words) is listed as “superior”. For the same compound, the Safety margin result in “Safety margin LD50/ED50” (setting [8]) is on record as “remarkably high”. This compound came in with a TD50 at 6 h in data set [6] of 200 mg/kg. Moreover, the “Therapeutic index compared with indomethacin and diclofenac” value in the data set “in vivo [1]” (in words) is listed as “superior”. In addition, the Therapeutic index entry in the data set “in vivo [1]” (setting [8]) is “remarkably high”. Moreover, the “Rate of suppression of edema” value is on record as 55.7% in data set [3] (premedication 1 hr.); 54.9% in [3] (premedication 3 hr.); 48.3% in data set [3] (premedication 6 hr.); 40.3% in [3] (premedication 12 hr.); 22.6% in data set [3] (premedication 24 hr.); 9.8% in data set [3] (premedication 48 hr.). In data set [3] (in words), the “Duration of anti-inflammatory activity” value was “excellent”.
`O=C(O)Cc1ccccc1Nc1c(Cl)cccc1Cl` [Diclofenac]: the “Rate of suppression of edema” value in [3] (premedication 1 hr.) is given as 45.9%; in data set [3] (premedication 3 hr.), 24.7%; in data set [3] (premedication 6 hr.), 17.6%; in [3] (premedication 24 hr.) it was -1.2%.
Turning to `CN1C(C(=O)Nc2nccs2)C(=O)c2ccccc2S1(=O)=O` (centres unmarked) [Sudoxicam, 3,4-dihydro-2-methyl-4-oxo-N-(2-thiazolyl)-2H-1,2-benzothiazine-3-carboxamide 1,1-dioxide], the LD50 in the data set on mice was 500 mg/kg, p.o. Further, the “Safety margin, LD50/ED50” value in the data set “Safety margin LD50/ED50” worked out at 98. In addition, in the data set “Safety margin LD50/ED50” (in words), the “Safety margin compared with indomethacin and diclofenac” value was “superior”. Besides, the “Gastric disorders, UD50” value in data set [7] is reported as 11.8 mg/kg. In addition, in “in vivo [1]” (in words), the “Therapeutic index compared with indomethacin and diclofenac” value is recorded as “superior”. In “in vivo [1]”, the selectivity ratio stood at 2.3. Besides, in data set [2], the Anti-inflammatory activity entry is “potent and long-lasting”; the “Degree of toxicity and incidence of gastric disorders compared with indomethacin and diclofenac” value is recorded as “not appreciably different”. Also, in data set [3] (premedication 48 hr.), the “Rate of suppression of edema” value was -2.4%.
